These results are taken from patent publication US7122543B2, “Substituted benzoic acid derivatives having NF-κB inhibiting action” (Daiichi Suntory Pharma Co., Ltd., priority 2001, dated 2006).

The structures appear in SMILES notation. Converted amounts (≈) assume the structure as drawn.

One data set relates to NF-κB. Put plainly: NF-κB luciferase reporter assay in A549/NF-κBLuc cells stimulated with IL-1β. In kind it is cell-based, human. The following applies: A549/NF-κBLuc cells; compound added 1 hour before IL-1β, 3 hours more incubation; luciferase activity as index. How it is done: Effects of Compounds on Human Lung Cancer A549 Cells (A549/NF-κBLuc) Stably Transfected with Luciferase Plasmid (pNFκB-Luc, Stratagene, U.S.A.) Having the NF-κB Regulatory Sequence
Using lipofectamine (Lifetech Oriental K.K., Tokyo), pNFκB-Luc were cotransfected with pSV2neo (Clontech, U.S.A.) into A549 cells (ATCC CCL185) according to the conventional method, and A549/NF-κBLuc stably transfected with pNFκB-Luc were selected by adding G418 sulfate (1 mg/ml, Lifetech Oriental K.K.) to the culture medium.
A compound prepared in an Example was added to A549/NF-κBLuc, then IL-1β which was able to activate the NF-κB was added at 1 hour thereafter and incubation was continued for 3 hours more. It has been made clear by using a luciferase activity as an index that the compound obtained in the Example suppresses the activation of NF-κB by stimulated with IL-1β.
As for `COC1=C(OC)C(=O)C(Cc2ccc(-c3ccncc3)c(C(=O)N3CCCCC3)c2)=C(C)C1=O` [Example 58a, N-[5-(5,6-Dimethoxy-3-methyl-1,4-benzoquinon-2-yl)methyl-2-(4-pyridyl)benzoyl]piperidine], the IC50 value was 15 mg/L (≈ 32.6 µM).

Molecule `COC1=C(OC)C(=O)C(Cc2ccc(-c3ccncc3)c(C(=O)N3CCCCC3)c2)=C(C)C1=O` [Example 58b, N-[5-(5,6-Dimethoxy-3-methyl-1,4-benzoquinon-2-yl)methyl-2-(4-pyridyl)benzoyl]piperidine] displayed an IC50 value of 45 mg/L (≈ 97.7 µM).

The data set is the same for the next values; noted with them: A549/NF-κBLuc cells; word printed in the IC50 column instead of a value.
Regarding `COc1c(C)c(Cc2ccc(C(=O)O)c(-c3cccnc3)c2)c(OC)c(OC)c1OC` [Example 12, 4-(3,4,5,6-Tetramethoxy-2-methylbenzyl)-2-(3-pyridyl) benzoic acid], the “IC50 value (result in words)” value is listed as “toxic”.

Staying with this data set, now noted: Homo sapiens, A549, A549/NF-κBLuc cells; compound added 1 hour before IL-1β, 3 hours more incubation; luciferase activity as index.
On to `COc1c(C)c(Cc2ccc(-c3cccnc3)c(C(=O)O)c2)c(OC)c(OC)c1OC` [Example 14, 5-(3,4,5,6-Tetramethoxy-2-methylbenzyl)-2-(3-pyridyl)benzoic acid], for which the IC50 is above 15 mg/L.

For `COc1c(C)c(Cc2ccc(-c3ccncc3)c(C(=O)O)c2)c(OC)c(OC)c1OC` [Example 15, 5-(3,4,5,6-Tetramethoxy-2-methylbenzyl)-2-(4-pyridyl)benzoic acid], the IC50 is above 15 mg/L.

Molecule `COc1cccc(-c2ccc(Cc3c(C)c(OC)c(OC)c(OC)c3OC)cc2C(=O)O)c1` [Example 17, 5-(3,4,5,6-Tetramethoxy-2-methylbenzyl)-2-(3-methoxyphenyl)benzoic acid] returned an IC50 above 15 mg/L.

Regarding `COc1ccccc1-c1ccc(Cc2c(C)c(OC)c(OC)c(OC)c2OC)cc1C(=O)O` [Example 18, 5-(3,4,5,6-Tetramethoxy-2-methylbenzyl)-2-(2-methoxyphenyl)benzoic acid], the IC50 was above 15 mg/L.

The molecule `COC1=C(OC)C(=O)C(Cc2ccc(C(=O)O)c(-c3ccccc3)c2)=C(C)C1=O` [Example 35, 4-(5,6-Dimethoxy-3-methyl-1,4-benzoquinon-2-yl)methyl-2-phenylbenzoic acid] came in with an IC50 above 15 mg/L.

`COC1=C(OC)C(=O)C(Cc2ccc(C(=O)O)c(-c3cccnc3)c2)=C(C)C1=O` [Example 36, 4-(5,6-Dimethoxy-3-methyl-1,4-benzoquinon-2-yl)methyl-2-(3-pyridyl)benzoic acid] had an IC50 above 15 mg/L.

Take `COC1=C(OC)C(=O)C(Cc2ccc(-c3ccccc3)c(C(=O)O)c2)=C(C)C1=O` [Example 37, 5-(5,6-Dimethoxy-3-methyl-1,4-benzoquinon-2-yl)methyl-2-phenylbenzoic acid]: the IC50 is above 45 mg/L.

Regarding `COC1=C(OC)C(=O)C(Cc2ccc(-c3cccnc3)c(C(=O)O)c2)=C(C)C1=O` [Example 38, 5-(5,6-Dimethoxy-3-methyl-1,4-benzoquinon-2-yl)methyl-2-(3-pyridyl)benzoic acid], the IC50 was above 45 mg/L.

Molecule `COC1=C(OC)C(=O)C(Cc2ccc(-c3ccncc3)c(C(=O)O)c2)=C(C)C1=O` [Example 39, 5-(5,6-Dimethoxy-3-methyl-1,4-benzoquinon-2-yl)methyl-2-(4-pyridyl)benzoic acid] yielded an IC50 above 30 mg/L.

Molecule `COC1=C(OC)C(=O)C(Cc2ccc(-c3ccc(OC)cc3)c(C(=O)O)c2)=C(C)C1=O` [Example 40, 5-(5,6-Dimethoxy-3-methyl-1,4-benzoquinon-2-yl)methyl-2-(4-methoxyphenyl)benzoic acid] displayed an IC50 above 45 mg/L.

On to `COC1=C(OC)C(=O)C(Cc2ccc(C(=O)Nc3ccc(C(F)(F)F)cc3)c(-c3ccccc3)c2)=C(C)C1=O` [Example 45, N-[4-(5,6-Dimethoxy-3-methyl-1,4-benzoquinon-2-yl)methyl-2-phenylbenzoyl]-4-trifluoromethyl-aniline], for which the IC50 was above 30 mg/L.

With `COC1=C(OC)C(=O)C(Cc2ccc(C(=O)N3CCOCC3)c(-c3cccnc3)c2)=C(C)C1=O` [Example 47, N-[4-(5,6-Dimethoxy-3-methyl-1,4-benzoquinon-2-yl)methyl-2-(3-pyridyl)benzoyl]morpholine], the IC50 amounted to 24 mg/L.

Take `COC1=C(OC)C(=O)C(Cc2ccc(C(=O)Nc3ccc(C(F)(F)F)cc3)c(-c3cccnc3)c2)=C(C)C1=O` [Example 48, N-[4-(5,6-Dimethoxy-3-methyl-1,4-benzoquinon-2-yl)methyl-2-(3-pyridyl)benzoyl]-4-trifluoromethylaniline]: the IC50 was above 30 mg/L.

`COC1=C(OC)C(=O)C(Cc2ccc(C(=O)Nc3ccc(OC)cc3)c(-c3cccnc3)c2)=C(C)C1=O` [Example 49, N-[4-(5,6-Dimethoxy-3-methyl-1,4-benzoquinon-2-yl)methyl-2-(3-pyridyl)benzoyl]-4-methoxy-aniline]: half-maximal inhibition (IC50) required 24 mg/L.

For `COC1=C(OC)C(=O)C(Cc2ccc(-c3ccccc3)c(C(=O)N3CCOCC3)c2)=C(C)C1=O` [Example 51, N-[5-(5,6-Dimethoxy-3-methyl-1,4-benzoquinon-2-yl)methyl-2-phenylbenzoyl]morpholine], the IC50 was above 30 mg/L.

The molecule `COC1=C(OC)C(=O)C(Cc2ccc(-c3ccccc3)c(C(=O)Nc3ccc(OC)cc3)c2)=C(C)C1=O` [Example 52, N-[5-(5,6-Dimethoxy-3-methyl-1,4-benzoquinon-2-yl)methyl-2-phenylbenzoyl]-4-methoxyaniline] showed an IC50 above 45 mg/L.

The molecule `COC1=C(OC)C(=O)C(Cc2ccc(-c3ccccc3)c(C(=O)Nc3ccc(C(F)(F)F)cc3)c2)=C(C)C1=O` [Example 53, N-[5-(5,6-Dimethoxy-3-methyl-1,4-benzoquinon-2-yl)methyl-2-phenylbenzoyl]-4-trifluoromethylaniline] displayed an IC50 above 30 mg/L.

For `COC1=C(OC)C(=O)C(Cc2ccc(-c3cccnc3)c(C(=O)N3CCCCC3)c2)=C(C)C1=O` [Example 54, N-[5-(5,6-Dimethoxy-3-methyl-1,4-benzoquinon-2-yl)methyl-2-(3-pyridyl)benzoyl]piperidine], the IC50 stood at 15 mg/L.

Take `COC1=C(OC)C(=O)C(Cc2ccc(-c3cccnc3)c(C(=O)N3CCOCC3)c2)=C(C)C1=O` [Example 55, N-[5-(5,6-Dimethoxy-3-methyl-1,4-benzoquinon-2-yl)methyl-2-(3-pyridyl)benzoyl]morpholine]: the IC50 was above 45 mg/L.

`COC1=C(OC)C(=O)C(Cc2ccc(-c3cccnc3)c(C(=O)Nc3ccc(OC)cc3)c2)=C(C)C1=O` [Example 56, N-[5-(5,6-Dimethoxy-3-methyl-1,4-benzoquinon-2-yl)methyl-2-(3-pyridyl)benzoyl]-4-methoxy-aniline] displayed an IC50 above 45 mg/L.

As for `COC1=C(OC)C(=O)C(Cc2ccc(-c3cccnc3)c(C(=O)Nc3ccc(C(F)(F)F)cc3)c2)=C(C)C1=O` [Example 57, N-[5-(5,6-Dimethoxy-3-methyl-1,4-benzoquinon-2-yl)methyl-2-(3-pyridyl)benzoyl]-4-trifluoromethylaniline], the IC50 was above 30 mg/L.

Molecule `COC1=C(OC)C(=O)C(Cc2ccc(-c3ccncc3)c(C(=O)N3CCOCC3)c2)=C(C)C1=O` [Example 59, N-[5-(5,6-Dimethoxy-3-methyl-1,4-benzoquinon-2-yl)methyl-2-(4-pyridyl)benzoyl]morpholine] gave an IC50 above 45 mg/L.

Consider `COC1=C(OC)C(=O)C(Cc2ccc(-c3ccncc3)c(C(=O)Nc3ccc(OC)cc3)c2)=C(C)C1=O` [Example 60a, N-[5-(5,6-Dimethoxy-3-methyl-1,4-benzoquinon-2-yl)methyl-2-(4-pyridyl)benzoyl]-4-methoxyaniline], for which the IC50 was above 30 mg/L.

On to `COC1=C(OC)C(=O)C(Cc2ccc(-c3ccncc3)c(C(=O)Nc3ccc(OC)cc3)c2)=C(C)C1=O.Cl` [Example 60b, N-[5-(5,6-Dimethoxy-3-methyl-1,4-benzoquinon-2-yl)methyl-2-(4-pyridyl)benzoyl]-4-methoxyaniline], for which the IC50 was above 30 mg/L.

For the molecule `COC1=C(OC)C(=O)C(Cc2ccc(-c3ccncc3)c(C(=O)Nc3ccc(C(F)(F)F)cc3)c2)=C(C)C1=O` [Example 61, N-[5-(5,6-Dimethoxy-3-methyl-1,4-benzoquinon-2-yl)methyl-2-(4-pyridyl)benzoyl]-4-trifluoromethylaniline], the IC50 is above 30 mg/L.

As to `COC1=C(OC)C(=O)C(Cc2ccc(-c3ccc(OC)cc3)c(C(=O)Nc3ccc(OC)cc3)c2)=C(C)C1=O` [Example 64, N-[5-(5,6-Dimethoxy-3-methyl-1,4-benzoquinon-2-yl)methyl-2-(4-methoxyphenyl]benzoyl)-4-methoxyaniline], the IC50 stood at 12 mg/L.

Turning to `COC1=C(OC)C(=O)C(Cc2ccc(-c3cccc(OC)c3)c(C(=O)N3CCCCC3)c2)=C(C)C1=O` [Example 65, N-[5-(5,6-Dimethoxy-3-methyl-1,4-benzoquinon-2-yl)methyl-2-(3-methoxyphenyl)benzoyl]-piperidine], it took 40 mg/L to reach half-maximal inhibition (IC50).

As for `COC1=C(OC)C(=O)C(Cc2ccc(-c3cccc(OC)c3)c(C(=O)N3CCOCC3)c2)=C(C)C1=O` [Example 66, N-[5-(5,6-Dimethoxy-3-methyl-1,4-benzoquinon-2-yl)methyl-2-(3-methoxyphenyl)benzoyl]-morpholine], the IC50 is 42 mg/L.

The same data set, now with this note: Homo sapiens, A549, same value printed in parentheses in μM; A549/NF-κBLuc cells, IL-1β stimulation, luciferase activity.
As to `COC1=C(OC)C(=O)C(Cc2ccc(-c3cccnc3)c(C(=O)N3CCCCC3)c2)=C(C)C1=O` [Example 54, N-[5-(5,6-Dimethoxy-3-methyl-1,4-benzoquinon-2-yl)methyl-2-(3-pyridyl)benzoyl]piperidine], the IC50 amounted to 33 µM.

For the molecule `COC1=C(OC)C(=O)C(Cc2ccc(-c3ccc(OC)cc3)c(C(=O)Nc3ccc(OC)cc3)c2)=C(C)C1=O` [Example 64, N-[5-(5,6-Dimethoxy-3-methyl-1,4-benzoquinon-2-yl)methyl-2-(4-methoxyphenyl]benzoyl)-4-methoxyaniline], the IC50 stood at 23 µM.

On to `COC1=C(OC)C(=O)C(Cc2ccc(-c3cccc(OC)c3)c(C(=O)N3CCCCC3)c2)=C(C)C1=O` [Example 65, N-[5-(5,6-Dimethoxy-3-methyl-1,4-benzoquinon-2-yl)methyl-2-(3-methoxyphenyl)benzoyl]-piperidine], for which the IC50 was determined as 82 µM.

With `COC1=C(OC)C(=O)C(Cc2ccc(-c3cccc(OC)c3)c(C(=O)N3CCOCC3)c2)=C(C)C1=O` [Example 66, N-[5-(5,6-Dimethoxy-3-methyl-1,4-benzoquinon-2-yl)methyl-2-(3-methoxyphenyl)benzoyl]-morpholine], the IC50 came to 85 µM.

Still in this data set, the particulars now being: same value printed in parentheses in μM; A549/NF-κBLuc cells, IL-1β stimulation, luciferase activity.
For the molecule `COC1=C(OC)C(=O)C(Cc2ccc(-c3ccncc3)c(C(=O)N3CCCCC3)c2)=C(C)C1=O` [Example 58a, N-[5-(5,6-Dimethoxy-3-methyl-1,4-benzoquinon-2-yl)methyl-2-(4-pyridyl)benzoyl]piperidine], the IC50 was determined as 30 µM.

With `COC1=C(OC)C(=O)C(Cc2ccc(-c3ccncc3)c(C(=O)N3CCCCC3)c2)=C(C)C1=O` [Example 58b, N-[5-(5,6-Dimethoxy-3-methyl-1,4-benzoquinon-2-yl)methyl-2-(4-pyridyl)benzoyl]piperidine], the IC50 turned out to be 81 µM.
